Among the data in EP0851862B1, “1(HETERO)ARYL-4-(CONDENSED THIAZOL-2-YLALKYL)-PIPERAZINE DERIVATIVES, THEIR PREPARATION AND THEIR USE IN THE TREATMENT OF 5-HT1A-RECEPTOR MEDIATED DISORDERS” (Pharmacia Italia S.p.A., priority 1995, dated 1997) are IC50 values, retold here.

Structures can show the parent of a compound that is named as a salt.

One test concerns the target T1, 5-HT1A receptor sites (Rattus norvegicus, UniProt P19327).
T1 sequence (P19327 1-422): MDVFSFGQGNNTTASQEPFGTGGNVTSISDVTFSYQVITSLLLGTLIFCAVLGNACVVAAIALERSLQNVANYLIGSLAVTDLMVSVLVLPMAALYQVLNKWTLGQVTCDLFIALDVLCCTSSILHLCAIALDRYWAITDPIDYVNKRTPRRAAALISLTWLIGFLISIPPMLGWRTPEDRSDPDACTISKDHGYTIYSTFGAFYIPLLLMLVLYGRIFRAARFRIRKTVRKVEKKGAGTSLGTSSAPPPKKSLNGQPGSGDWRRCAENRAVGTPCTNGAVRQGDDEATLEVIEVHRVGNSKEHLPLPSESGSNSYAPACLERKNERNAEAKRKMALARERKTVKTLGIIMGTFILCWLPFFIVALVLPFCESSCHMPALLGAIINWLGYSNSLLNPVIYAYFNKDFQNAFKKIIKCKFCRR
Briefly: receptor binding profile, 5-HT1A. Conditions: read-out: 5-HT1A Affinity is expressed as IC50.

The target in another test is D1 (Rattus norvegicus, UniProt P18901). Briefly: receptor binding profile, D1. Conditions: read-out: D1 Affinity is expressed as IC50.
The next test has as its target D2 (Rattus norvegicus, UniProt P61169). As to the kind of experiment: receptor binding profile, D2. Particulars: read-out: D2 Affinity is expressed as IC50.
A further test deals with α1. As to the kind of experiment: receptor binding profile, α1. Particulars: read-out: α1 Affinity is expressed as IC50.
The next test addresses 5-HT2 (Rattus norvegicus, UniProt P14842). Briefly: receptor binding profile, 5-HT2. Particulars: read-out: 5-HT2 Affinity is expressed as IC50.
The target of another test is α2. As to the kind of experiment: receptor binding profile, α2. Conditions: read-out: α2 Affinity is expressed as IC50.

Sequence of D2 (P61169 whole entry): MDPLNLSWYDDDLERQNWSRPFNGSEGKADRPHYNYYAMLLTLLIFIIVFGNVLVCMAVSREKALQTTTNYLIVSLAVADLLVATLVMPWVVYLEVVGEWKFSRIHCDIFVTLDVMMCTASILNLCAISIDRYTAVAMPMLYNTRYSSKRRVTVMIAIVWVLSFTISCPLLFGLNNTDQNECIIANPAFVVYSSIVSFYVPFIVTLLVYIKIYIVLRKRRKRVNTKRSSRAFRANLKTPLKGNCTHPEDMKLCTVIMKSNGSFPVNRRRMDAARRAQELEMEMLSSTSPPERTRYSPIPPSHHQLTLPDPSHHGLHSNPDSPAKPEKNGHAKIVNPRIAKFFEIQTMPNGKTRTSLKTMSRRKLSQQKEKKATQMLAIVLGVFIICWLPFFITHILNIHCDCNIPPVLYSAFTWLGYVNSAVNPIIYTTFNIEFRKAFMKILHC
Sequence of D1 (P18901 whole entry): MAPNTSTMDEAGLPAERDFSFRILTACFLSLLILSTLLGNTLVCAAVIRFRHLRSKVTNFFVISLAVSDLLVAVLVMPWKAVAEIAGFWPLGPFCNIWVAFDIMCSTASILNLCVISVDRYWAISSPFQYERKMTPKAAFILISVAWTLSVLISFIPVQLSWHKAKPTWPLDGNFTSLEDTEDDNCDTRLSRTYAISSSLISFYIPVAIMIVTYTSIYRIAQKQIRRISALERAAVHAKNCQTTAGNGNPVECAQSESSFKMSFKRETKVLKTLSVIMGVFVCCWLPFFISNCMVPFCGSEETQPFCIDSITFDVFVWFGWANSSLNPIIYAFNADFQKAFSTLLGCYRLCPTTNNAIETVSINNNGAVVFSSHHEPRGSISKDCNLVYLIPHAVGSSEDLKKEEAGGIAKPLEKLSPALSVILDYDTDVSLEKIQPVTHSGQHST
Sequence of 5-HT2 (P14842 whole entry): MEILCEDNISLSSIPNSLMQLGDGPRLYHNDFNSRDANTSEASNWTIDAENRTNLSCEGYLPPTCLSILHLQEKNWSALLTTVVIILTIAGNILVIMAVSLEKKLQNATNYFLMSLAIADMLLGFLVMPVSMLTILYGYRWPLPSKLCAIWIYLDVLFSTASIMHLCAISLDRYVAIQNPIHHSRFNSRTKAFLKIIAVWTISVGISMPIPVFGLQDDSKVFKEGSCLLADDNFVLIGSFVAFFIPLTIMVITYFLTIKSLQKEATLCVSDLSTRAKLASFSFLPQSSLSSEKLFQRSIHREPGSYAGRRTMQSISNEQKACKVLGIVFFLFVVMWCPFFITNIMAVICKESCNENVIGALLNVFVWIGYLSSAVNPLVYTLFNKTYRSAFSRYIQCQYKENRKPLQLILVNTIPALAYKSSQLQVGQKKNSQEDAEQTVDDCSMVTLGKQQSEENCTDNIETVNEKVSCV
Excerpt for 5-HT1A receptor sites: The affinity of the compounds of the present invention towards 5-HT1A receptor sites can be assessed by evaluating the binding profile of the compounds of formula (I).

What is called IC50 is the concentration that gives 50% inhibition. For the compound “5-Methoxy-2-[4-(4-phenyl-piperazin-1-yl)-butyl]-4,5-dihydro-naphtho[1,2-d]thiazole hydrochloride [(11)]”, the IC50 is 10 nM on 5-HT1A receptor sites; 1770 nM at D1; 24 nM on D2; 52 nM on α1; 66 nM on 5-HT2; 18 nM at α2.
As for “5-Methoxy-2-{4-[4-(2-methoxy-phenyl)-piperazin-1-yl]-butyl}-4,5-dihydro-naphtho[1,2-d]thiazole hydrochloride [(13)]”, the IC50 at 5-HT1A receptor sites was 3.7 nM; on D2, 8 nM; at α1 it was 35 nM; at 5-HT2 it was 240 nM; at α2, 46 nM.
Take “5-Methoxy-2-{4-[4-(2-pyridyl)-piperazin-1-yl]-butyl}-4,5-dihydro-naphtho[1,2-d]thiazole hydrochloride [(12)]”: the IC50 worked out at 8.2 nM on 5-HT1A receptor sites; 1490 nM on D1; 61 nM on D2; 190 nM on α1; 82 nM on 5-HT2; 390 nM on α2.
In the case of “6-Methoxy-2-[4-(4-phenyl-piperazin-1-yl)-butyl]-4,5-dihydro-naphtho[1,2-d]thiazole hydrochloride [(10)]”, the IC50 on 5-HT1A receptor sites was 400 nM; on D1 it was over 10000 nM; at D2, 680 nM; on α1, 1140 nM; at 5-HT2, 3180 nM; at α2, 3770 nM.
“6-Methoxy-2-{4-(4-(2-methoxy-phenyl)-piperazin-1-yl]-butyl}-4,5-dihydro-naphtho[1,2-d]thiazole hydrochloride [(1)]”: the IC50 on 5-HT1A receptor sites was 3.2 nM; on D1, 590 nM; at D2, 20 nM; at α1, 52 nM; at 5-HT2, 250 nM; on α2, 92 nM.
On to “7-Methoxy-2-[4-(4-phenyl-piperazin-1-yl)-butyl]-4,5-dihydro-naphtho[1,2-d]thiazole hydrochloride [(7)]”, for which the IC50 was 12 nM at 5-HT1A receptor sites; 1180 nM at D1; 25 nM on D2; 49 nM on α1; 870 nM on 5-HT2; 500 nM on α2.
As for “7-Methoxy-2-{4-[4-(2-methoxy-phenyl)-piperazin-1-yl]-butyl}-4,5-dihydro-naphtho[1,2-d]thiazole hydrochloride [(8)]”, the IC50 on 5-HT1A receptor sites amounted to 7 nM; on D1, 1610 nM; at D2 it was 150 nM; on α1 it was 200 nM; at 5-HT2, 720 nM; on α2, 380 nM.
Regarding “7-Methoxy-2-{4-[4-(2-pyridyl)-piperazin-1-yl]-butyl}-4,5-dihydro-naphtho[1,2-d]thiazole hydrochloride [(9)]”, the IC50 on 5-HT1A receptor sites is 4.1 nM; on D1, 430 nM; at D2 it was 11 nM; at α1, 58 nM; at 5-HT2, 55 nM; at α2, 20 nM.
Consider `c1ccc(N2CCN(Cc3nc4c(s3)CCc3ccccc3-4)CC2)cc1` [(2), 2-[(4-phenyl-piperazin-1-yl)-methyl]-4,5 dihydronaphtho[1,2-d]thiazole hydrocloride], for which the 50% inhibitory concentration (IC50) on 5-HT1A receptor sites was determined as 42 nM; on α1, 130 nM; at 5-HT2 it was 300 nM; on α2 it was 300 nM.
Regarding `c1ccc(N2CCN(CCc3nc4c(s3)CCc3ccccc3-4)CC2)cc1` [(3)], the IC50 on 5-HT1A receptor sites is 170 nM; at α1, 110 nM; on 5-HT2, 63 nM; at α2, 160 nM.
In the same order, the values of `c1ccc(N2CCN(CCCc3nc4c(s3)CCc3ccccc3-4)CC2)cc1` [(4), 2-[3-(4-phenyl-piperazin-1-yl)-propyl]-4,5-dihydronaphtho[1,2-d]thiazole hydrocloride] are 69 nM, 120 nM, 280 nM and 110 nM.
In the same order, the values of `c1ccc(N2CCN(CCCCc3nc4c(s3)CCc3ccccc3-4)CC2)cc1` [(5), 2-[4-(4-phenyl-piperazin-1-yl)-butyl]-4,5-dihydronaphtho[1,2-d]thiazole hydrocloride] are 67 nM, 170 nM, 66 nM and 260 nM.
Take `COc1ccc2c(c1)CCc1sc(CCCN3CCN(c4ccccc4OC)CC3)nc1-2` [(6), 7-Methoxy-2-{3-[4-(2-methoxy-phenyl) -piperazin-1-yl]-propyl}-4,5-dihydro-naphtho[1,2-d]thiazole hydrochloride]: the IC50 stood at 90 nM on α1 and 160 nM on α2.
